Laboratory results: US6951916B2, “Melanocortin receptor ligands” (The Procter & Gamble Company, priority 1999, dated 2005)

molecular target: T1, MC-4 receptor (Homo sapiens, UniProt P32245); test: BioTrak cAMP direct enzymeimmunoassay in HEK cells stably transfected with MC-1, MC-3 or MC-4 receptors (% cAMP relative to NDP-MSH); type: cell-based; conditions: % of maximal cAMP produced by NDP-MSH; concentrations 1×10^−8 to 1×10^−4 molar; HEK cells transfected with MC-1, MC-3 or MC-4
T1 construct: expressed in transfected cells; host or cells: HEK cells (stably transfected)
Description: The NDP-MSH standard was evaluated for the level of c-AMP release at each receptor and the values for the test samples were expressed as a % of the maximal amount produced by NDP-MSH. 1R, 3R, and 4R correspond respectively to the MC-1, MC-3, and MC-4 receptors. The % c-AMP produced by each compound was measured at concentrations from 1×10^−8 to 1×10^−4 molar.
As used herein, “MC-4 agonist” and “MC-3 agonist” refers to a compound with affinity for the MC-4 receptor or MC-3 receptor, respectively, that results in measurable biological activity in cells, tissues, or organisms which contain the MC-4 or MC-3 receptor. […] One particularly useful assay is the BioTrak TM cAMP direct enzymeimmunoassay (EIA) system from Amersham Pharmacia Biotech, which quantitates the cAMP response of cells to MC ligands. This system allows the simple quantitation of total cellular cAMP measurement in cells exposed to selective ligands. Briefly summarized: HEK cells stably transfected with the MC-1, MC-3 or MC-4 receptors are plated into 96 well microtiter plates and grown overnight. Cells are dosed with the appropriate MC ligand for 1 hour and then lysed. A fraction of the lysed cell extract is transferred to the assay plate. The ELISA assay is performed according to kit instructions. Each plate contains a series of cAMP standards for calculating a standard curve, as well as a full MC agonist as a positive control for each MC receptor. cAMP activity is calculated as a % of the maximum cAMP activity of the full MC agonist control.
A compound's selectivity is determined from a comparison of its EC50 values at the relevant receptors being referenced. As used herein, use of the term “selective over the other MC receptors” means selective with respect to all of the MC-1, MC-2 and MC-5 receptors. For example, a compound having an EC50 of 8 nM at the MC-4 receptor and an EC50 of ≧80 nM at the MC-1, MC-2 and MC-5 receptors has a selectivity ratio for the MC-4 receptor over the other MC receptors of at least 1:10. Additionally, it will be recognized that selectivity may also refer to one of the MC-1, MC-2 or MC-5 receptors individually. For example, a compound having an EC50 of 8 nM at the MC-4 receptor and an EC50 of 80 nM at the MC-1 receptor has a selectivity ratio for the MC-4 receptor over the MC-1 receptor of 1:10. Such a compound is selective over the MC-1 receptor, regardless of its EC50 value for MC-2 or MC-5. Selectivity is described in more detail below and may be determined by using, for example, the software Prism v 2.0 which is available from GraphPad, Inc.

T1 sequence (P32245 whole entry): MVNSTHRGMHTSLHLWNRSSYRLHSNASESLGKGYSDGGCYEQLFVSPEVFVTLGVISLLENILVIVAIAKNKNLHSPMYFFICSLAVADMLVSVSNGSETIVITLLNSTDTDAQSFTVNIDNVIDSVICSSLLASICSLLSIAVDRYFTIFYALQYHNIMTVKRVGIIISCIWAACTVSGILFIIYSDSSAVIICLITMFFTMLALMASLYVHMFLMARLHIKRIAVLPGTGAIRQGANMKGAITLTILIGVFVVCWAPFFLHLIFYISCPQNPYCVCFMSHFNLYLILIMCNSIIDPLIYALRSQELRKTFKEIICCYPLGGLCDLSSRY

Substance | selectivity shown by % cAMP activity at various concentrations at MC-1R, MC-3R and MC-4R
Ac-NIeDHfRWGK-NH2 [reference compound] | non-selective agonist
Ac-SYSNIeEHfRWGKPV-NH2 [reference compound] | non-selective agonist
Ac-[DYfRWGK]-NH2 [Example 2] | selectivity of this analog for MC-4R over the MC-3R and MC-1R
Ac-aDYfRWG(Orn)-NH2 [Example 17] | selectivity of this analog for MC-4R over MC-1R
Ac-aDYfRWGK-NH2 [Example 16] | selectivity of this analog for MC-4R over the MC-3R and MC-1R
Ac-aDYfRWK-NH2 [Example 14] | selectivity of this analog for MC-4R over MC-1R
Ac-aEYfRWG(Orn)-NH2 | selectivity of this analog for MC-4R over MC-1R
Ac-a[DYfRWG(Orn)]-NH2 [Example 31] | selectivity of this analog for MC-4R over MC-1R
Ac-a[EYfRWG(Orn)]-NH2 [Example 4] | selectivity of this analog for MC-4R over the MC-3R and MC-1R
Ac-a[EYfRWGK]-NH2 [Example 5] | selectivity of this analog for MC-4R over the MC-3R and MC-1R

system: not listed separately; test: Example A: treatment of an obese human subject to incur weight loss; type: in vivo; conditions: obese human 130 kg; intravenous injection once each day for 6 months, 15 ml aqueous solution with 5 mg/ml compound
Description: An obese human subject weighing 130 kg is treated by this method to incur weight loss. Specifically, once each day for a period of 6 months, the subject is administered, via intravenous injection, 15 ml of an aqueous solution comprising the following: […]

Substance | weight loss at the end of the treatment period
Ac-a[DYfRWGK]-NH2 [Example 1] | measurable weight loss
